PMC8434491, “Targeting the Integrated Stress Response Kinase GCN2 to Modulate Retroviral Integration” (Molecules, 2021)
Structures can show the parent of a compound that is named as a salt. Where two headings read alike, the source gives them in different places.

Experiments:
[1] = target: T1, IN–GCN2 interaction (UniProt P04585+Q9P2K8); assay: IN–GCN2 interaction assay (AlphaLISA); type: binding, HIV-1 IN / human GCN2; conditions: for effect on the IN–GCN2 interaction: A-92: over a wide concentration range, MK-2048: nanomolar or low micromolar ranges
T1 construct: expressed as a truncated version (192-1024) in fusion after a glutathione S-transferase tag; Recombinant full-length IN was expressed in E. coli BL21 pLys; purchased SignalChem (GCN2); IN made in house in E. coli BL21 pLys E12-11G; host or cells: E. coli BL21 pLys (IN)
From the text: We developed an in vitro plate-based assay to monitor the interaction between GCN2 and IN using the AlphaLISA technology (Figure 1). Taking advantage of the tags present on each recombinant protein (6xHis for IN prepared “in-house”, and GST for GCN2 commercially available), we used specific beads that fluoresce only when they are in close proximity (<200 nm). The signal obtained (light count) is directly proportional to the binding of IN to GCN2 (homogenous solution assay at steady state).
IN–GCN2 interaction assay. Protein–protein interactions were monitored using the AlphaLISA technology (Perkin Elmer) taking advantage of the GST and 6xHis tags of GCN2 and IN, respectively. Accordingly, AlphaScreen GSH Donor beads and AlphaLISA Nickel Acceptor beads were used (Perkin Elmer). Reactions were carried out at room temperature by incubating GCN2 with drugs or DMSO for 5 min before addition of AlphaLISA Nickel Acceptor beads. After 5 min, IN was added to the reaction mixture and incubated for 20 min before adding the AlphaScreen GSH Donor beads. This interaction assay was performed in conditions similar to the in vitro phosphorylation assay, already described, using 25 nM GCN2 and 700 nM (except indicated otherwise) in a reaction buffer containing 50 mM Tris-HCl pH 7.5, 40 mM NaCl, 1 mM dithiothreitol (DTT), 0.05% Tween 20, 0.1% bovine serum albumin (BSA), 10 µg/mL of each donor and acceptor beads. Alpha signal was measured using an EnSight plate reader (Perkin Elmer) 120 min after the addition of the latest component of the reaction (unless indicated otherwise).

[2] = target: T2, GCN2 (Homo sapiens, UniProt Q9P2K8); assay: In vitro phosphorylation assay: GCN2 activation (auto-phosphorylation); type: biochemical; conditions: for decrease in GCN2 auto-phosphorylation: single dose of 100 µM, compared to DMSO
T2 construct: expressed as a truncated version (192-1024) in fusion after a glutathione S-transferase tag; purchased SignalChem E12-11G
T2 sequence (Q9P2K8 192-1024): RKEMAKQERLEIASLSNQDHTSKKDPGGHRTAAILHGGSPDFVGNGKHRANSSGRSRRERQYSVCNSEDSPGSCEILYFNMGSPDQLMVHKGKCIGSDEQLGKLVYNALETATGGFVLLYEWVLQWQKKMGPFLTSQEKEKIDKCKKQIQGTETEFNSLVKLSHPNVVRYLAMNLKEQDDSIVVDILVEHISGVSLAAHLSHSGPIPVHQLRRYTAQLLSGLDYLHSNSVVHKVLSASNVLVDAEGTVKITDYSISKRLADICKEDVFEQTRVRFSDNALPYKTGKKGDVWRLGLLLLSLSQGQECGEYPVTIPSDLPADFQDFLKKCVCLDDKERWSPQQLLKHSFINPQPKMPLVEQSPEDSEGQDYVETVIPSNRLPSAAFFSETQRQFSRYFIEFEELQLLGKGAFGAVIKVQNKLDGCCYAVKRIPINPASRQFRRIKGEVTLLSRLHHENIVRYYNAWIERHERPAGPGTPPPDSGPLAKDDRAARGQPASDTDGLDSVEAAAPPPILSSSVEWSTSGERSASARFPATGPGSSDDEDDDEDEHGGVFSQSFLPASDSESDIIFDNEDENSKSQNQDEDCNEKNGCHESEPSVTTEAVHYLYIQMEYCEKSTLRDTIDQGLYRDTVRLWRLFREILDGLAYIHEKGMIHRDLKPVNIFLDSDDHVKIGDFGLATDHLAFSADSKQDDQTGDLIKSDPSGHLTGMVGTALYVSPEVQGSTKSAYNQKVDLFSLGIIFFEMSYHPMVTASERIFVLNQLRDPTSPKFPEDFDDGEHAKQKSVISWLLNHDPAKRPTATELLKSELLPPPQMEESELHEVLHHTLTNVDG
From the text: Enzymes. GCN2 was purchased from SignalChem (EIF2AK4, cat. #E12-11G). This human recombinant protein was expressed as a truncated version (192-1024) in fusion after a glutathione S-transferase tag (approximate molecular weight of 132 kDa). Recombinant full-length IN was expressed in E. coli BL21 pLys (IPTG induction) and purified on a nickel chelating column, as described. Integrity and purity were checked by direct Coomassie coloration of elution fractions on SDS-PAGE before dialysis to remove imidazole. Protein concentration was determined using a NanoDrop 2000 with the following parameters: molecular weight: 34 kDa, extinction coefficient ϵ = 50,460 mol^−1cm^−1L.
In vitro phosphorylation assay. Phosphorylation of IN (700 nM) was carried out using 25 nM of GCN2 in a reaction buffer containing 10 mM Tris-HCl pH 7.5, 50 mM NaCl, 15 mM MgCl2, 7.5 mM MnCl2, 10 mM DTT, 0.005% Nonidet P-40, 100 µM ATP, 50 µCi/µL of [γ-^32P]-ATP (3000 Ci/mmole, Perkin Elmer). Reactions (20 µL) were stopped after a 60 min incubation at 30 °C by adding 10 µL of loading buffer [80 mM Tris-HCl pH 6.8, 100 mM DTT, 10% glycerol, 1% sodium dodecyl sulfate (SDS) and 0.05% bromophenol blue]. Samples were then loaded onto a 10% denaturating SDS-PAGE. After protein separation (120 V for 120 min) the gel was stained using Coomassie Brilliant Blue R-250. Autoradiography was performed using an imaging plate (Fujifilm, Tokyo, Japan) and images were obtained with a FLA-5000 Imaging System (Fujifilm).

[3] = target: T3, HIV-1 IN (Human immunodeficiency virus type 1 group M subtype B, UniProt P04585); assay: Integrase reaction, strand transfer (ST), gel-based; type: biochemical
T3 construct: Recombinant full-length IN was expressed in E. coli BL21 pLys; 6xHis; made in house; host or cells: E. coli BL21 pLys
Description: (§1) Oligonucleotides. Oligonucleotides were purchased from Integrated DNA Technologies, Inc. (Leuven, Belgium), purified on polyacrylamide gel through electro-elution and dissolve in water. 19T ([…]) and 21B ([…]) correspond to the cleaved and non-cleaved strands specifically recognized by HIV-1 IN. Radiolabeling of 19T at the 5′-end was performed with [γ-^32P] ATP (Perkin-Elmer, Villebon-sur-Yvette, France) using T4 polynucleotide kinase (Promega, Charbonnières-les-Bains, France), according to the manufacturers’ instructions. Unincorporated isotopes were removed using illustra microspin G-25 Columns (Cytiva life sciences, Amersham, Little Chalfont, United Kingdom). DNA duplexes were annealed using an equimolar ratio of the complementary strand 21B, heating to 95 °C, and slow cooling to room temperature.
Integrase reactions. IN reactions were carried out by adding molecules or an equivalent volume of 100% DMSO (dimethyl sulfoxide, used as the drug solvent) to a mixture of 20 nM duplex DNA (19T/21B) and 400 nM IN in 50 mM MOPS pH 7.2, 7.5 mM MgCl2, and 14 mM 2-mercaptoethanol. Reactions were performed at 37 °C for 1 h and quenched by addition of an equal volume (10 µL) of loading buffer [formamide containing 1% SDS (sodium dodecyl sulfate), 0.25% bromophenol blue, and xylene cyanol]. Reaction products were separated in 16% polyacrylamide denaturing sequencing gels. Dried gels were visualized using a FLA-5000 imaging system (Fujifilm). Densitometric analyses were performed using the ImageQuant 5.1 software (GE Healthcare, Chicago, IL, USA) and data analyzed using Prism 6.05 software (GraphPad, San Diego, CA, USA).

[4] = target: T3, HIV-1 IN; assay: Integrase reaction, 3'-processing (3'-P), gel-based; type: biochemical; conditions: gel-based assay
Description: as §1
Integrase reactions. IN reactions were carried out by adding molecules or an equivalent volume of 100% DMSO (dimethyl sulfoxide, used as the drug solvent) to a mixture of 20 nM duplex DNA (19T/21B) and 400 nM IN in 50 mM MOPS pH 7.2, 7.5 mM MgCl2, and 14 mM 2-mercaptoethanol. […] Densitometric analyses were performed using the ImageQuant 5.1 software (GE Healthcare, Chicago, IL, USA) and data analyzed using Prism 6.05 software (GraphPad, San Diego, CA, USA).

[5] = target: T4, IN's phosphorylation catalyzed by GCN2 (Homo sapiens, UniProt Q9P2K8); assay: In vitro phosphorylation assay: phosphorylation of IN catalyzed by GCN2; type: biochemical, human GCN2 / HIV-1 IN; conditions: for inhibition at 100 µM: read-out: decrease (inhibition) in IN phosphorylation; for concentration giving full inhibition of IN phosphorylation: serial dilutions from 300 µM to 137 nM
T4 construct: expressed as a truncated version (192-1024) in fusion after a glutathione S-transferase tag; purchased SignalChem (GCN2); IN made in house in E. coli BL21 pLys E12-11G; host or cells: E. coli BL21 pLys (IN)
T4 sequence (Q9P2K8 192-1024): T2 sequence (Q9P2K8 192-1024)
Description: Enzymes. GCN2 was purchased from SignalChem (EIF2AK4, cat. #E12-11G). […] Recombinant full-length IN was expressed in E. coli BL21 pLys (IPTG induction) and purified on a nickel chelating column, as described. Integrity and purity were checked by direct Coomassie coloration of elution fractions on SDS-PAGE before dialysis to remove imidazole.
In vitro phosphorylation assay. […] Reactions (20 µL) were stopped after a 60 min incubation at 30 °C by adding 10 µL of loading buffer [80 mM Tris-HCl pH 6.8, 100 mM DTT, 10% glycerol, 1% sodium dodecyl sulfate (SDS) and 0.05% bromophenol blue]. Samples were then loaded onto a 10% denaturating SDS-PAGE. After protein separation (120 V for 120 min) the gel was stained using Coomassie Brilliant Blue R-250. Autoradiography was performed using an imaging plate (Fujifilm, Tokyo, Japan) and images were obtained with a FLA-5000 Imaging System (Fujifilm).

[6] = 100 µM, dose-response experiment
[7] = single dose of 100 µM, compared to DMSO
[8] = pilot screen, single dose of 100 µM, read-out: inhibition of the IN–GCN2 interaction signal
[9] = pilot screen, single dose of 100 µM

c1nn(C2CCOCC2)cc1Nc1ncc2nnn(-c3ccc4cn[nH]c4c3)c2n1 [A-92]
doses with a slight impact on IN–GCN2 interaction [1]: above 333 µM
inhibition at 1000 µM ([1]; 1 mM): < 20%
effect on the IN–GCN2 interaction [1]: did not affect
IC50 ([2]; read-out: apparent IC50, GCN2's activation (autophosphorylation)): ~0.2 µM

CCN1C[C@@H](C)n2c(c(O)c3c(=O)n(Cc4ccc(F)c(Cl)c4)nc(C(=O)NC)c32)C1=O [MK-2048]
effect on the IN–GCN2 interaction [1]: did not affect
IC50 ([1]; read-out: apparent IC50, IN–GCN2 interaction): ~100 µM
IC50 ([3]; gel-based assay, read-out: apparent IC50, inhibition of ST): 0.02 µM
IC50 [4]: 2 µM

Clc1ccc(C(c2ccccc2Cl)C(Cl)Cl)cc1 (stereo not shown) [NSC38721, Mitotane]
value (signal) at the highest dose in the dose-response experiment [1, 6]: 248.5%
increase in signal (IN–GCN2 interaction) ([1]; pilot screen, 100 µM, compared to the DMSO control): 299.9%
inhibition at 100 µM [5, 7]: ~30%
effect on IN strand transfer activity ([3]; serial dilutions from 100 µM to 45.7 nM, only IN present): inactive

CC1=C(/C=C/C(C)=C/C=C/C(C)=C/C(=O)O)C(C)(C)CCC1 [NSC122758, Tretinoin]
value (signal) at the highest dose in the dose-response experiment [1, 6]: 10.5%
inhibition at 100 µM ([1]; 100 µM, dose-response experiment, corresponding to the printed signal, read-out: inhibition at the highest dose in the dose-response experiment): 89.5%
inhibition at 100 µM [1, 8]: 87.3%
decrease in GCN2 auto-phosphorylation [2]: no impact
decrease (inhibition) in IN phosphorylation [5, 7]: no impact

Cc1cn(-c2cc(NC(=O)c3ccc(C)c(Nc4nccc(-c5cccnc5)n4)c3)cc(C(F)(F)F)c2)cn1 [NSC747599, Nilotinib]
decrease in GCN2 auto-phosphorylation [2]: no effect
inhibition at 100 µM [5, 7]: 40%

CNCc1ccc(-c2[nH]c3cc(F)cc4c3c2CCNC4=O)cc1 [NSC756644, Rucaparib phosphate]
concentration giving full inhibition of GCN2 auto-phosphorylation ([2]; serial dilutions from 300 µM to 137 nM): 300 µM
decrease in GCN2 auto-phosphorylation [2]: ~80%
concentration giving full inhibition of IN phosphorylation [5]: 300 µM
decrease (inhibition) in IN phosphorylation [5, 7]: inhibited

Cc1ccc(C(=O)Nc2ccc(CN3CCN(C)CC3)c(C(F)(F)F)c2)cc1C#Cc1cnc2cccnn12 [NSC758487, Ponatinib]
decrease in GCN2 auto-phosphorylation [2]: around 35%
inhibition at 100 µM [5]: > 80%
concentration giving full inhibition of IN phosphorylation [5]: without reaching full inhibition

CC1(C)CCC(CN2CCN(c3ccc(C(=O)NS(=O)(=O)c4ccc(NCC5CCOCC5)c([N+](=O)[O-])c4)c(Oc4cnc5[nH]ccc5c4)c3)CC2)=C(c2ccc(Cl)cc2)C1 [NSC766270, Venetoclax]
inhibition at 100 µM [1, 8]: 93.6%
decrease in GCN2 auto-phosphorylation [2]: no impact
decrease (inhibition) in IN phosphorylation [5, 7]: no impact

C=CC(=O)Nc1cc(Nc2nccc(-c3cn(C)c4ccccc34)n2)c(OC)cc1N(C)CCN(C)C [NSC779217, Osimertinib]
inhibition at 100 µM [1, 8]: 83.5%
decrease in GCN2 auto-phosphorylation [2]: around 20%
inhibition at 100 µM [5, 7]: ~20%

CCc1c2c(nc3ccc(OC(=O)N4CCC(N5CCCCC5)CC4)cc13)-c1cc3c(c(=O)n1C2)COC(=O)[C@]3(O)CC [irinotecan, Irinotecan hydrochloride]
inhibition of the IN–GCN2 interaction signal [1, 9]: no effect

CC[C@@]1(O)C(=O)OCc2c1cc1n(c2=O)Cc2cc3c(CN(C)C)c(O)ccc3nc2-1 [topotecan, Topotecan hydrochloride]
inhibition of the IN–GCN2 interaction signal [1, 9]: no effect
